Experiments:
human VPS34 = human VPS34 (Homo sapiens (Human), UniProt Q8NEB9); assay: Human VPS34 enzyme assay (Adapta TR-FRET ADP detection); format: biochemical; details: IC50 range class
A431 cell line = assay: Cellular anti-proliferative assay of VPS34 inhibitors in combination with a second therapeutic agent (Cell Titer Glo, 72 hrs); format: cell-based
Procedure: (§1) Example 57: Cellular Assay for Anti-proliferative Activity of VPS34 Inhibitors in Combination with a Second Therapeutic Agent
(§2) Cells were plated in 25 μl of media in 384 well plates at 1,000 cells per well (A431, PC9, and […] cell lines), 1,500 cells per well (NCI-H1975) or 2,000 cells per well (NCI-H1650). The plates were incubated for 24 hrs at 37° C., 6% CO2. The test compounds (see Table 38 below) were diluted serially, and 62.5 nL of each compound solution (or DMSO, if it is a single agent experiment) is added so the total added to the cells is 125 nL. Cell plates were incubated for 72 hrs at 37° C., 6% CO2. Cell Titer Glo reagent (Promega) was added. The plates were then incubated for 10 minutes at room temperature before luminescence was read on a plate reader such as the Pherastar Plus, Pherastar FS, or LEADSeeker imaging system.
(§3) Bliss antagonism was defined similarly.
(§4) Bliss dependence was defined as the percent cell survival at a certain dose combination divided by the percent cell survival predicted by Bliss independence. More specifically, the Bliss dependence is vAB/(vA*vB), where vAB is the viability with drug A and drug B added, while vA and vB are the viabilities with each drug alone. The dose for the combination used in this study is the inflection point for each drug alone.
(§5) Another way to evaluate additivity is through consideration of Loewe additivity. A difference between Bliss independence and Loewe additivity evaluations of drug combination data is that Bliss independence evaluates whether two drugs interact at all (the null hypothesis is that the mechanisms are entirely independent) and Loewe additivity evaluates whether two drugs interact in an additive fashion (the null hypothesis is that the two drugs work by identical mechanisms). For Bliss independence, the boundary between additivity and synergy must be measured. For Loewe additivity, this boundary is assumed to be at a value of 1. Thus, Bliss independence provides a boundary between antagonism and synergy or additivity. Loewe additivity provides a boundary between synergy and independence or antagonism.
(§6) Synergy can also be measured by nonlinear blending synergy. Nonlinear blending synergy [Peterson, J. J. and Novik, S. J. J Recept Signal Transduct Res, 27, 12-146 (2007))] is found by considering the percent cell death values along the nonlinear blending plot. If the maximum cell death occurs between the endpoints, then the blending synergy is the difference between the maximum cell death for the combined drugs and the maximum cell death for the either drug alone.
(§7) A derivative of Loewe additivity is the Combination Index, I (see Chou T. C., Talalay P. Adv. Enzyme Reg., 22: 27-55 (1984) and Berenbaum M. C. J. Theor. Biol., 114:413-431 (1985)). This measure is based on the shape of the isobologram which represents 50% viability (for a review of the use of isobolograms in analysis of drug combinations, see Tallarida, R. J. J. Pharm. Exp. Therap. 319:1-7 (2006)).
(§8) The results in Table 38A were summarized by categorizing the Combination Index, I. A mean Combination Index in the range (0.7-1.3) is classified as Additivity. A mean in the range (0-0.7) is classified as Synergy. A mean in the range (1.3-2) is classified as Subadditivity. A mean greater than 2 is classified as Antagonism. […] In this case, the Nonlinear Blending Synergy is used instead to generate a call (Table 38B). The categorization is similar to the Combination Index. A Nonlinear Blending Synergy within the range (−20, 20) is classified as Additive. A value below −20 is classified as Antagonism, while a value above 20 is classified as Synergy.

NCI-H1650 cell line = assay: as above; format: cell-based, human; details: NCI H-1650
Procedure: as §1, §2, §3, §4, §5, §6, §7, §8

NCI-H1975 cell line = assay: as above; format: cell-based, human
Procedure: as §1, §2, §3, §4, §5, §6, §7, §8

PC9 cell line = assay: as above; format: cell-based, human
Procedure: as §1, §2, §3, §4, §5, §6, §7, §8

[1] = in combination with AZD9291 (Compound Y)
[2] = in combination with AZD9291, call from Combination Index
[3] = in combination with CO-1686 (Compound Y)
[4] = in combination with CO-1686, call from Combination Index
[5] = in combination with Afatinib (Compound Y)
[6] = in combination with Erlotinib (Compound Y)

human VPS34, sequence (Q8NEB9 whole entry): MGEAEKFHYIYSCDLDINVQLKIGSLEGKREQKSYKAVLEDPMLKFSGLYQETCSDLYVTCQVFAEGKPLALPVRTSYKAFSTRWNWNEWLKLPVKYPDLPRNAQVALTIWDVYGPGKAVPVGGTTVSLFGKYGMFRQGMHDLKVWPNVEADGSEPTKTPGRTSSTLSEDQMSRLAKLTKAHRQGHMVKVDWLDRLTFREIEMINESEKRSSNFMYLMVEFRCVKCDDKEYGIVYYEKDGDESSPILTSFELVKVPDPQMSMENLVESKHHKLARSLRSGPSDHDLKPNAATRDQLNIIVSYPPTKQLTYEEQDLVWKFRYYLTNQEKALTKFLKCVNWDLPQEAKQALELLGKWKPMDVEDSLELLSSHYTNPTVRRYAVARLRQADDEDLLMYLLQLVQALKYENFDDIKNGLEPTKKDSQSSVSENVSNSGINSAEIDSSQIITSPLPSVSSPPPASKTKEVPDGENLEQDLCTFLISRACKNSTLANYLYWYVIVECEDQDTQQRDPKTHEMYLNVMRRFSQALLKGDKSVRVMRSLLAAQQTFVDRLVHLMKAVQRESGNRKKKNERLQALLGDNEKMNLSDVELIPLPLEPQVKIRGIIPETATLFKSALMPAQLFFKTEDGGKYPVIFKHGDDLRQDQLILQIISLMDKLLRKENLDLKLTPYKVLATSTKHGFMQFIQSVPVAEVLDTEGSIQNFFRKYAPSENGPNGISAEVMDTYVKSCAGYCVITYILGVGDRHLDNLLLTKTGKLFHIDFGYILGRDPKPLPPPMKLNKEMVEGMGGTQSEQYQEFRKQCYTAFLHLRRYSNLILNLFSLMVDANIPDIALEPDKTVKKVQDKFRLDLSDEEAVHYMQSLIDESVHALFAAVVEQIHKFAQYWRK

`Cc1nccc(Nc2cc(-c3cnc(C)c(C(=O)N4CCC4)c3)ccn2)n1` [Compound I-304, Azetidin-1-yl(6-methyl-2′-((2-methylpyrimidin-4-yl)amino)-3,4′-bipyridin-5-yl)methanone] was tested, and the IC50 (human VPS34) was 10 to 50 nM, the “Combination Index” value (A431 cell line; [1]) was 0.78 and the Meaning (A431 cell line; [2]) was “Additivity (A mean Combination Index in the range (0.7-1.3) is classified as Additivity)”. For the same compound, the “Combination Index” value (A431 cell line; [3]) was 0.99, the Meaning (A431 cell line; [4]) was “Additivity (A mean Combination Index in the range (0.7-1.3) is classified as Additivity)” and the “Combination Index” value (NCI-H1650 cell line; [1]) was 0.80. The “Combination Index” value (NCI-H1650 cell line; [3]) was 0.47, the “Combination Index” value (NCI-H1975 cell line; [1]) was 1.00 and the “Combination Index” value (NCI-H1975 cell line; [3]) was 0.77. For the same compound, the “Combination Index” value (PC9 cell line; [1]) was 0.98, the Meaning (PC9 cell line; [2]) was “Additivity (A mean Combination Index in the range (0.7-1.3) is classified as Additivity)” and the “Combination Index” value (PC9 cell line; [3]) was 0.90. The Meaning (PC9 cell line; [4]) was “Additivity (A mean Combination Index in the range (0.7-1.3) is classified as Additivity)”.

For `Cc1c(-c2ccnc(NC(=O)C3CC3)c2)cnc(Cl)c1NS(=O)(=O)c1ccc(F)cc1F` [Compound I-308, N-(6-chloro-5-{[(2,4-difluorophenyl)sulfonyl]amino}-4-methyl-3,4′-bipyridin-2′-yl)cyclopropanecarboxamide], the IC50 (human VPS34) was < 10 nM, the “Blending Synergy” value (A431 cell line; [1]) was 10.2 and the Meaning (A431 cell line; in combination with AZD9291, call from Nonlinear Blending Synergy) was “Additivity”. For the same compound, the “Blending Synergy” value (A431 cell line; [5]) was 11.2, the Meaning (A431 cell line; in combination with Afatinib, call from Nonlinear Blending Synergy) was “Additivity” and the “Combination Index” value (A431 cell line; [3]) was 0.88. For the same compound, the Meaning (A431 cell line; [4]) was “Additivity (A mean Combination Index in the range (0.7-1.3) is classified as Additivity)”, the “Blending Synergy” value (A431 cell line; [6]) was 15.2 and the Meaning (A431 cell line; in combination with Erlotinib, call from Nonlinear Blending Synergy) was “Additivity”. The “Combination Index” value (NCI-H1650 cell line; [1]) was 0.53, the “Combination Index” value (NCI-H1650 cell line; [5]) was 0.55 and the “Combination Index” value (NCI-H1650 cell line; [3]) was 0.36. For the same compound, the “Blending Synergy” value (NCI-H1650 cell line; [6]) was 27.0, the “Combination Index” value (NCI-H1975 cell line; [1]) was 0.72 and the “Combination Index” value (NCI-H1975 cell line; [5]) was 0.84. For the same compound, the “Combination Index” value (NCI-H1975 cell line; [3]) was 0.60, the “Combination Index” value (PC9 cell line; [1]) was 1.33 and the Meaning (PC9 cell line; [2]) was “Subadditivity (A mean in the range (1.3-2) is classified as Subadditivity)”. For the same compound, the “Combination Index” value (PC9 cell line; [5]) was 1.49, the Meaning (PC9 cell line; in combination with Afatinib, call from Combination Index) was “Subadditivity (A mean in the range (1.3-2) is classified as Subadditivity)” and the “Combination Index” value (PC9 cell line; [3]) was 1.19. For the same compound, the Meaning (PC9 cell line; [4]) was “Additivity (A mean Combination Index in the range (0.7-1.3) is classified as Additivity)”, the “Combination Index” value (PC9 cell line; [6]) was 1.36 and the Meaning (PC9 cell line; in combination with Erlotinib, call from Combination Index) was “Subadditivity (A mean in the range (1.3-2) is classified as Subadditivity)”.
